Patent US20240218022A1, “ANTI-VISTA MACROCYCLIC PEPTIDES AND COMPOSITIONS” (BRISTOL-MYERS SQUIBB COMPANY, priority 2022, published 2024)
Starred links: 1 amine or outer side, 2 acyl side, 3 side chain; linkers in the order of their positions; H or OH if unused. Positions of bridges follow the written chain, without caps; N, C: chain ends. Non-standard residues stand in square brackets, D forms with d. Residues, ends and D or L forms follow the SMILES beside them. Phe(3-Me) = Cc1cccc(C[C@H](N)C(=O)O)c1; γGlu = O=C(O)[C@H](CCC(=O)[*:2])N[*:1]; 2Nal = N[C@@H](Cc1ccc2ccccc2c1)C(=O)O; βAsp = O=C(O)[C@H](CC(=O)[*:2])N[*:1]; Cit = NC(=O)NCCC[C@H](N)C(=O)O; Ahp(2) = CCCCC[C@H](N)C(=O)O; NMeNle = CCCC[C@H](NC)C(=O)O; NHexGly = CCCCCCNCC(=O)O; Nle = CCCC[C@H](N)C(=O)O; Aun = NCCCCCCCCCCC(=O)O; AEEA = NCCOCCOCC(=O)O

Biological target: T1, mouse VISTA (mVISTA) (Mus musculus, UniProt Q9D659)
T1 construct: expressed in transfected cells; host or cells: Human embryonic kidney 293T cells
T1 sequence (Q9D659 33-308): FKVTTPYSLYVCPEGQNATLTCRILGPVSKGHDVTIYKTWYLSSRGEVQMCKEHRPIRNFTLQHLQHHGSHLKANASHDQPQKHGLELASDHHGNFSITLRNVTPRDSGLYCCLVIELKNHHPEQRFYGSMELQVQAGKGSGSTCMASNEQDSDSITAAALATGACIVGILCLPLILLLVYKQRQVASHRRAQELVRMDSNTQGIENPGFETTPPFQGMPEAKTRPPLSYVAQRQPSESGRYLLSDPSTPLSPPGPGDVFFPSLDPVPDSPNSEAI
Assay: Cell-Based Binding High-Content Assay For mVISTA (HC CBA mVISTA)
Settings: cell-based binding high-content assay, mVISTA; read-out: HC CBA miPr ISTA IC50
Method in brief: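 mVISTA-293T, 4,000 cells/well; cpd ± washout step; biotin-peptide 2 nM final, 30 min RT; SA-Alexa 647 30 min; formaldehyde/Hoechst fix; HCS imaging; 4PL IC50.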

IC50 [nM]	Compound
51.3	CCCCCCN1CC(=O)N[C@@H](Cc2ccc(O)cc2)C(=O)N[C@@H](CC(C)C)C(=O)N[C@@H](CC(N)=O)C(=O)N[C@@H](CCCNC(=N)N)C(=O)N[C@@H](CC(C)C)C(=O)N[C@@H](CCCCC)C(=O)N2CCC[C@H]2C(=O)N[C@@H](C(C)C)C(=O)N[C@@H](C(C)C)C(=O)N[C@H](C(=O)NCC(=O)NCCOCCOCC(=O)N[C@@H](CC(=O)O)C(=O)NCCOCCOCC(=O)NCCCCCCCCCCC(=O)O)CSCC(=O)N[C@@H](Cc2ccccc2)C(=O)N[C@@H](Cc2ccc(O)cc2)C(=O)N[C@@H](CC(=O)O)C1=O [compound 2012] ({CH2CO}-FYD[NHexGly]YLNRL[Ahp(2)]PVVCG[AEEA]D[AEEA][Aun]-OH; thioether N-14)
25.5	CCCCCCN1CC(=O)N[C@@H](Cc2ccc(O)cc2)C(=O)N[C@@H](CCCCC)C(=O)NCC(=O)N[C@@H](CCCNC(=N)N)C(=O)N[C@@H](CC(C)C)C(=O)N[C@@H](CCCCC)C(=O)N2CCC[C@H]2C(=O)N[C@@H](C(C)C)C(=O)N[C@@H](CO)C(=O)N[C@H](C(=O)NCC(=O)NCCOCCOCC(=O)N[C@@H](CC(=O)O)C(=O)NCCOCCOCC(=O)NCCCCCCCCCCC(=O)O)CSCC(=O)N[C@@H](Cc2ccccc2)C(=O)N[C@@H](Cc2ccc(O)cc2)C(=O)N[C@@H](CC(=O)O)C1=O [compound 2013] ({CH2CO}-FYD[NHexGly]Y[Ahp(2)]GRL[Ahp(2)]PVSCG[AEEA]D[AEEA][Aun]-OH; thioether N-14)
16.4	CCCCCCN1CC(=O)N[C@@H](Cc2ccc(O)cc2)C(=O)N[C@@H](CCCC)C(=O)NCC(=O)N[C@@H](CCCNC(=N)N)C(=O)N[C@@H](CC(C)C)C(=O)N[C@@H](CCCCC)C(=O)N2CCC[C@H]2C(=O)N[C@@H](C(C)C)C(=O)N[C@@H](CC(=O)O)C(=O)N[C@H](C(=O)NCC(=O)NCCOCCOCC(=O)N[C@@H](CC(=O)O)C(=O)NCCOCCOCC(=O)NCCCCCCCCCCC(=O)O)CSCC(=O)N[C@@H](Cc2cccc(C)c2)C(=O)N[C@@H](Cc2ccc(O)cc2)C(=O)N[C@@H](CC(=O)O)C1=O [compound 2014] ({CH2CO}-[Phe(3-Me)]YD[NHexGly]Y[Nle]GRL[Ahp(2)]PVDCG[AEEA]D[AEEA][Aun]-OH; thioether N-14)
19	CCCCCCN1CC(=O)N[C@@H](Cc2ccc(O)cc2)C(=O)N[C@@H](CCCC)C(=O)N[C@@H](CC(N)=O)C(=O)N[C@@H](CCCNC(N)=O)C(=O)N[C@@H](CC(C)C)C(=O)N[C@@H](CCCCC)C(=O)N2CCC[C@H]2C(=O)N[C@@H](C(C)C)C(=O)N[C@@H](CO)C(=O)N[C@H](C(=O)NCC(=O)NCCOCCOCC(=O)N[C@@H](CC(=O)O)C(=O)NCCOCCOCC(=O)NCCCCCCCCCCC(=O)O)CSCC(=O)N[C@@H](Cc2ccc3ccccc3c2)C(=O)N[C@@H](Cc2ccc(O)cc2)C(=O)N[C@@H](CC(=O)O)C1=O [compound 2016] ({CH2CO}-[2Nal]YD[NHexGly]Y[Nle]N[Cit]L[Ahp(2)]PVSCG[AEEA]D[AEEA][Aun]-OH; thioether N-14)

Further lines, the compound ahead of its results:

Compound	IC50 [nM]
CCCCCCN1CC(=O)N[C@@H](Cc2ccc(O)cc2)C(=O)N[C@@H](CC(C)C)C(=O)N[C@@H](CC(N)=O)C(=O)N[C@@H](CCCNC(=N)N)C(=O)N[C@@H](CC(C)C)C(=O)N[C@@H](CCCCC)C(=O)N2CCC[C@H]2C(=O)N[C@@H](C(C)C)C(=O)N[C@@H](CO)C(=O)N[C@H](C(=O)NCC(=O)NCCOCCOCC(=O)N[C@@H](CC(=O)O)C(=O)NCCOCCOCC(=O)NCCCCCCCCCCC(=O)O)CSCC(=O)N[C@@H](Cc2ccccc2)C(=O)N[C@@H](Cc2ccc(O)cc2)C(=O)N[C@@H](CC(=O)O)C1=O [compound 2001] ({CH2CO}-FYD[NHexGly]YLNRL[Ahp(2)]PVSCG[AEEA]D[AEEA][Aun]-OH; thioether N-14)	19.8
CCCCCCN1CC(=O)N[C@@H](Cc2ccc(O)cc2)C(=O)N[C@@H](CC(C)C)C(=O)N[C@@H](CC(N)=O)C(=O)N[C@@H](CCCNC(=N)N)C(=O)N[C@@H](CC(C)C)C(=O)N[C@@H](CCCCC)C(=O)N2CCC[C@H]2C(=O)N[C@@H](C(C)C)C(=O)N[C@@H](CO)C(=O)N[C@H](C(=O)N[C@@H](CCC(=O)NCCOCCOCC(=O)N[C@@H](CC(=O)O)C(=O)NCCOCCOCC(=O)NCCCCCCCCCCC(=O)O)C(=O)O)CSCC(=O)N[C@@H](Cc2ccccc2)C(=O)N[C@@H](Cc2ccc(O)cc2)C(=O)N[C@@H](CC(=O)O)C1=O [compound 2002] ({CH2CO}-FYD[NHexGly]YLNRL[Ahp(2)]PVSC[γGlu][AEEA]D[AEEA][Aun]-OH; thioether N-14)	19.6
CCCCCCN1CC(=O)N[C@@H](Cc2ccc(O)cc2)C(=O)N[C@@H](CC(C)C)C(=O)N[C@@H](CC(N)=O)C(=O)N[C@@H](CCCNC(=N)N)C(=O)N[C@@H](CC(C)C)C(=O)N[C@@H](CCCCC)C(=O)N2CCC[C@H]2C(=O)N[C@@H](C(C)C)C(=O)N[C@@H](CO)C(=O)N[C@H](C(=O)N[C@@H](CC(=O)NCCOCCOCC(=O)N[C@@H](CC(=O)O)C(=O)NCCOCCOCC(=O)NCCCCCCCCCCC(=O)O)C(=O)O)CSCC(=O)N[C@@H](Cc2ccccc2)C(=O)N[C@@H](Cc2ccc(O)cc2)C(=O)N[C@@H](CC(=O)O)C1=O [compound 2003] ({CH2CO}-FYD[NHexGly]YLNRL[Ahp(2)]PVSC[βAsp][AEEA]D[AEEA][Aun]-OH; thioether N-14)	37.8
CCCCCCN1CC(=O)N[C@@H](Cc2ccc(O)cc2)C(=O)N[C@@H](CC(C)C)C(=O)N[C@@H](CC(N)=O)C(=O)N[C@@H](CCCNC(=N)N)C(=O)N[C@@H](CC(C)C)C(=O)N[C@@H](CCCCC)C(=O)N2CCC[C@H]2C(=O)N[C@@H](C(C)C)C(=O)N[C@@H](CO)C(=O)N[C@H](C(=O)N[C@@H](CC(=O)O)C(=O)NCCOCCOCC(=O)N[C@@H](CC(=O)O)C(=O)NCCOCCOCC(=O)NCCCCCCCCCCC(=O)O)CSCC(=O)N[C@@H](Cc2ccccc2)C(=O)N[C@@H](Cc2ccc(O)cc2)C(=O)N[C@@H](CC(=O)O)C1=O [compound 2004] ({CH2CO}-FYD[NHexGly]YLNRL[Ahp(2)]PVSCD[AEEA]D[AEEA][Aun]-OH; thioether N-14)	49.3
CCCCCCN1CC(=O)N[C@@H](Cc2ccc(O)cc2)C(=O)N[C@@H](CCCC)C(=O)N[C@@H](CC(=O)O)C(=O)N[C@@H](CCCNC(=N)N)C(=O)N[C@@H](CC(C)C)C(=O)N[C@@H](CCCCC)C(=O)N2CCC[C@H]2C(=O)N[C@@H](C(C)C)C(=O)N[C@@H](CC(N)=O)C(=O)N[C@H](C(=O)NCC(=O)NCCOCCOCC(=O)N[C@@H](CC(=O)O)C(=O)NCCOCCOCC(=O)NCCCCCCCCCCC(=O)O)CSCC(=O)N[C@@H](Cc2ccccc2)C(=O)N[C@@H](Cc2ccc(O)cc2)C(=O)N[C@@H](CC(=O)O)C1=O [compound 2005] ({CH2CO}-FYD[NHexGly]Y[Nle]DRL[Ahp(2)]PVNCG[AEEA]D[AEEA][Aun]-OH; thioether N-14)	10.5
CCCCCCN1CC(=O)N[C@@H](Cc2ccc(O)cc2)C(=O)N[C@@H](CCCC)C(=O)N[C@@H](CC(N)=O)C(=O)N[C@@H](CCCNC(=N)N)C(=O)N[C@@H](CC(C)C)C(=O)N[C@@H](CCCCC)C(=O)N2CCC[C@H]2C(=O)N[C@@H](C(C)C)C(=O)N[C@@H](CO)C(=O)N[C@H](C(=O)NCC(=O)NCCOCCOCC(=O)N[C@@H](CC(=O)O)C(=O)NCCOCCOCC(=O)NCCCCCCCCCCC(=O)O)CSCC(=O)N[C@@H](Cc2ccc3ccccc3c2)C(=O)N[C@@H](Cc2ccc(O)cc2)C(=O)N[C@@H](CC(=O)O)C1=O [compound 2007] ({CH2CO}-[2Nal]YD[NHexGly]Y[Nle]NRL[Ahp(2)]PVSCG[AEEA]D[AEEA][Aun]-OH; thioether N-14)	19.6
CCCCCCN1CC(=O)N[C@@H](Cc2ccc(O)cc2)C(=O)N[C@@H](CCCC)C(=O)N[C@@H](CC(N)=O)C(=O)N[C@@H](CCCNC(=N)N)C(=O)N[C@@H](CC(C)C)C(=O)N[C@@H](CCCCC)C(=O)N2CCC[C@H]2C(=O)N[C@@H](C(C)C)C(=O)N[C@@H](CC(=O)O)C(=O)N[C@H](C(=O)NCC(=O)NCCOCCOCC(=O)N[C@@H](CC(=O)O)C(=O)NCCOCCOCC(=O)NCCCCCCCCCCC(=O)O)CSCC(=O)N[C@@H](Cc2cccc(C)c2)C(=O)N[C@@H](Cc2c[nH]c3ccccc23)C(=O)N[C@@H](CC(=O)O)C1=O [compound 2008] ({CH2CO}-[Phe(3-Me)]WD[NHexGly]Y[Nle]NRL[Ahp(2)]PVDCG[AEEA]D[AEEA][Aun]-OH; thioether N-14)	16.1
CCCCCCN1CC(=O)N[C@@H](Cc2ccc(O)cc2)C(=O)N[C@@H](CC(C)C)C(=O)N[C@@H](CC(N)=O)C(=O)N[C@@H](CCCNC(=N)N)C(=O)N[C@@H](CC(C)C)C(=O)N[C@@H](CCCCC)C(=O)N2CCC[C@H]2C(=O)N[C@@H](C(C)C)C(=O)N[C@@H](C(C)C)C(=O)N[C@H](C(=O)NCC(=O)NCCOCCOCC(=O)N[C@@H](CC(=O)O)C(=O)NCCOCCOCC(=O)NCCCCCCCCCCC(=O)O)CSCC(=O)N[C@@H](Cc2ccccc2)C(=O)N[C@@H](Cc2cccc(C)c2)C(=O)N[C@@H](CC(=O)O)C1=O [compound 2009] ({CH2CO}-F[Phe(3-Me)]D[NHexGly]YLNRL[Ahp(2)]PVVCG[AEEA]D[AEEA][Aun]-OH; thioether N-14)	38.9
CCCCCCN1CC(=O)N[C@@H](Cc2ccc(O)cc2)C(=O)N[C@@H](CCCC)C(=O)N[C@@H](CC(N)=O)C(=O)N[C@@H](CCCNC(=N)N)C(=O)N(C)[C@@H](CCCC)C(=O)N[C@@H](CCCCC)C(=O)N2CCC[C@H]2C(=O)N[C@@H](C(C)C)C(=O)N[C@@H](CC(=O)O)C(=O)N[C@H](C(=O)NCC(=O)NCCOCCOCC(=O)N[C@@H](CC(=O)O)C(=O)NCCOCCOCC(=O)NCCCCCCCCCCC(=O)O)CSCC(=O)N[C@@H](Cc2ccccc2)C(=O)N[C@@H](Cc2c[nH]c3ccccc23)C(=O)N[C@@H](CC(=O)O)C1=O [compound 2010] ({CH2CO}-FWD[NHexGly]Y[Nle]NR[NMeNle][Ahp(2)]PVDCG[AEEA]D[AEEA][Aun]-OH; thioether N-14)	15.9
